Source: patent US6894054B2, “Heterocyclic inhibitors of glycine transporter 2” (Telik, Inc., priority 2001, dated 2005)

Molecular target: T1, rat glycine transporter subtype 2 (GlyT2) (Rattus norvegicus, UniProt P58295)
T1 construct: expressed in transfected cells; host or cells: CHO cells
T1 sequence (P58295 1-799): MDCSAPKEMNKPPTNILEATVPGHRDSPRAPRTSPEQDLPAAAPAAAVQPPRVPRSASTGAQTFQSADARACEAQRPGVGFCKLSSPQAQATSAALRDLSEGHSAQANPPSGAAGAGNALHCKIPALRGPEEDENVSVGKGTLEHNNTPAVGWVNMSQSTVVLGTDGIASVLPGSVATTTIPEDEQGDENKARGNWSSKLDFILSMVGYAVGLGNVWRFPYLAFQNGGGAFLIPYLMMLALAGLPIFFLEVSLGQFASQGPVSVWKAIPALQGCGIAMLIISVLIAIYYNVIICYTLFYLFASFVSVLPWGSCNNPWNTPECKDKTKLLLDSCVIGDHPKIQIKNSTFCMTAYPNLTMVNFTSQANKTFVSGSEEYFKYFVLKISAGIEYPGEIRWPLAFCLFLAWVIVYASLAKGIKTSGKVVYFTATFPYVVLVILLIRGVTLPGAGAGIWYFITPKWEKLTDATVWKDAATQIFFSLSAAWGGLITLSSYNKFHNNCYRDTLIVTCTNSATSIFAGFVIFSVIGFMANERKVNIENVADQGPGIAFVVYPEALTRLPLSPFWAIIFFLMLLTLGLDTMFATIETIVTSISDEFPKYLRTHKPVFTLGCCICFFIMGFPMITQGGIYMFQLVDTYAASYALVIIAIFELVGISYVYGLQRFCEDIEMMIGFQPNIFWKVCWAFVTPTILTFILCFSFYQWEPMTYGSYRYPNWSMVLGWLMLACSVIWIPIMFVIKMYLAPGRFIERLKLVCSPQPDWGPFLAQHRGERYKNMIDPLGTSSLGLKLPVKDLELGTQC
Test: Inhibition of glycine transporter 2: 3H-glycine uptake in CHO cells expressing rat GlyT2
Assay type: cell-based
Conditions: GlyT2 inhibitory concentration, 15 min preincubation, 10 nM 3H-glycine, 7 min uptake, read-out: GlyT2 Inhib.
Experimental: CHO cells expressing rat glycine transporter subtype 2 (GlyT2) were grown in high glucose Dulbecco's modified Eagle's medium supplemented with 10% bovine fetal serum at 37° C. in a 5% CO2 atmosphere. Subconfluent cells growing in 24- or 96-well plates were washed with PBS, and were preincubated at 37° C. for 15 min with uptake buffer (100 mM NaCl, 2 mM KCl, 1 mM CaCl2, 1 mM MgCl2, 10 mM HEPES, pH 7.5) containing sample compounds. Uptake was initiated by adding prewarmed ^3H-glycine yielding a 10 nM final glycine concentration, and was terminated after 7 min by aspiration of the buffer. Cells were washed 3 times with ice-cold PBS, and radioactivity was determined by scintillation counting using TopCount. GlyT2 inhibitory concentrations for several compounds of Formula I are given below.

| SMILES | IC50 |
| --- | --- |
| CCn1nc(C)cc1-c1nnc(SCc2ccccc2)n1-c1ccccc1 [Compound 7, 3-benzylthio-5-(2-ethyl-5-methyl-3-diazolyl)-4-phenyl-1,2,4-triazole] | 6600 nM |
| c1ccc(CSc2nnc(CCCCc3nnc(SCc4ccccc4)o3)o2)cc1 [Compound 21, 2,2′-(1,4-butanediyl)bis[5-(benzylthio)-1,3,4-oxadiazole]] | 1100 nM |
| Clc1cccc(Cl)c1CSc1nnc(-c2cnccn2)s1 [Compound 12, 5-[(2,6-dichlorophenyl)methylthio]-2-(pyrazin-2-yl)-1,3,4-thiadiazole] | 900 nM |
